From patent US10392391B2 (Vertex Pharmaceuticals Incorporated, priority 2012, dated 2019)

These molecules were tested against ATR kinase (full-length ATR) (Homo sapiens (Human), UniProt Q13535) (assay: ATR inhibition assay (radioactive-phosphate incorporation)). Settings: not given.
ATR kinase (full-length ATR), sequence (Q13535 whole entry): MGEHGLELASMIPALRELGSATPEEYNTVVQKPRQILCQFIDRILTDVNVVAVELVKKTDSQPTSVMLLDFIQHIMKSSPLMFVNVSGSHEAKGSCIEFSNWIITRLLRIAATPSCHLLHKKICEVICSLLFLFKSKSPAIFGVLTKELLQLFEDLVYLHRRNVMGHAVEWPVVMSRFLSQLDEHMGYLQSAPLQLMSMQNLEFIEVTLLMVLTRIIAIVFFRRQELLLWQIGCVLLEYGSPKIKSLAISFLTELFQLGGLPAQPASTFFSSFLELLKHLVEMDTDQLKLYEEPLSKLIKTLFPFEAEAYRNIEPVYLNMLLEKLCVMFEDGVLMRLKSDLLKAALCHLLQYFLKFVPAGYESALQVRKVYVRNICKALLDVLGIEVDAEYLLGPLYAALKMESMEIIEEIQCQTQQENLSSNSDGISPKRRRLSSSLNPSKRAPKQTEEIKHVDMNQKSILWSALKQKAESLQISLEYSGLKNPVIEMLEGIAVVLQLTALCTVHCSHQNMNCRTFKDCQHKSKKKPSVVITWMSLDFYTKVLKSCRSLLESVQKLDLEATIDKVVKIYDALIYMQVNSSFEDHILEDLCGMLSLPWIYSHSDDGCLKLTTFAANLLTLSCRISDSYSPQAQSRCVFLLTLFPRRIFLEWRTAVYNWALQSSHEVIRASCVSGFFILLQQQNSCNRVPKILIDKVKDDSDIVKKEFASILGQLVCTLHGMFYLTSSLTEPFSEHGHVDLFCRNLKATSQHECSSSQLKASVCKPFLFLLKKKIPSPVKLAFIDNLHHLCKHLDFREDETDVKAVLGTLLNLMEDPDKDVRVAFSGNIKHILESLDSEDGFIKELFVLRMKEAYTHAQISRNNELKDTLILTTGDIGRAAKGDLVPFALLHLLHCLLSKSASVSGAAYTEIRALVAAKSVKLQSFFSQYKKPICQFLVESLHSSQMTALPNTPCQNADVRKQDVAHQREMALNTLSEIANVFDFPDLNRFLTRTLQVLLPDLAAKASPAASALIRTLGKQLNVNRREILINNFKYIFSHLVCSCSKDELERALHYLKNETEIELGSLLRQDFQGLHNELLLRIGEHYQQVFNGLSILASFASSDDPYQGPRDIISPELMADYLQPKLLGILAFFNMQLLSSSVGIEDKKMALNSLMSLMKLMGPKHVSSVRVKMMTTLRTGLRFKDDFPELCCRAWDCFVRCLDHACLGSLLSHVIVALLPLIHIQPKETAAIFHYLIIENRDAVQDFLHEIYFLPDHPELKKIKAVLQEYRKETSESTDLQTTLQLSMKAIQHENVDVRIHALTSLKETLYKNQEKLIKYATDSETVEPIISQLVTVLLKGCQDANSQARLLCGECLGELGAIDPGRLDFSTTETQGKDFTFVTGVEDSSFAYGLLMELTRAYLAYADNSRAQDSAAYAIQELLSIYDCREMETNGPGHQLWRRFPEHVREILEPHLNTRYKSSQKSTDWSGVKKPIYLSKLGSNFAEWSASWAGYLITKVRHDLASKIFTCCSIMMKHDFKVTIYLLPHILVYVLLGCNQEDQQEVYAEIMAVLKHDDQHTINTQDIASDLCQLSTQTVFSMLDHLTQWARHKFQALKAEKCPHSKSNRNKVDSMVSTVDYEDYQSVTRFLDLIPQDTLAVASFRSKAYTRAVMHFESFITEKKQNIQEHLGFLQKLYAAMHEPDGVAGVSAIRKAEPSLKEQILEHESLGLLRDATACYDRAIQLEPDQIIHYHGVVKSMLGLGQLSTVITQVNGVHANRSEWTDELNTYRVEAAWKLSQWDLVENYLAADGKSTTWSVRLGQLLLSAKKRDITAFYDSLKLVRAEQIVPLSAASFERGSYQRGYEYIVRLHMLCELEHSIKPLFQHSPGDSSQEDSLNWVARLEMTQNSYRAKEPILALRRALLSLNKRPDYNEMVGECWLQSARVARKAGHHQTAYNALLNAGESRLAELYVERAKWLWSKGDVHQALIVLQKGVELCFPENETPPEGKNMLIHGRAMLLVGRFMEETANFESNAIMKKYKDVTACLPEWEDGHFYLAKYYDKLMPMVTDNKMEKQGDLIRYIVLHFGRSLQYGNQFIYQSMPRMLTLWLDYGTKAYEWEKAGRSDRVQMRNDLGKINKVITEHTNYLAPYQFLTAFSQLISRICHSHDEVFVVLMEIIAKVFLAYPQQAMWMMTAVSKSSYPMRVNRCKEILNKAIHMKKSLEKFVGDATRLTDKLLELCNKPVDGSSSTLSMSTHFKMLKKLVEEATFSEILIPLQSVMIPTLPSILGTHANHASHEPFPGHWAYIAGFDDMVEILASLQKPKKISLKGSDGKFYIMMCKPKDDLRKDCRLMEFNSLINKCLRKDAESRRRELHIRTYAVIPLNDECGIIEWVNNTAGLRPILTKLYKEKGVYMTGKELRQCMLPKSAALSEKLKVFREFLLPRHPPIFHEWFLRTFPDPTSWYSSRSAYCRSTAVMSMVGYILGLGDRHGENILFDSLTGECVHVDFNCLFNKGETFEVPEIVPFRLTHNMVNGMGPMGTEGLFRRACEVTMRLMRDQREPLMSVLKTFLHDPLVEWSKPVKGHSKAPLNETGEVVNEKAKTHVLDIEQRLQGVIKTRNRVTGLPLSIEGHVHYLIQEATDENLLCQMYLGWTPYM
Assay type: biochemical
How it was run: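 Radiometric 33P incorporation by 5 nM full-length ATR into 800 μM target peptide with 10 μM [γ-33P]ATP, in 50 mM Tris/HCl pH 7.5, 10 mM MgCl2, 1 mM DTT, 7% DMSO, 25° C. Compound pre-incubated 10 minutes; reaction stopped after 24 hours, captured on phosphocellulose. Ki(app) from non-linear regression of initial rates.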
`CN1CC[C@@H](OC2CCN(c3c(F)cncc3NC(=O)c3c(N)nn4cc(F)cnc34)CC2)C1` [I-N-132, (R)-2-amino-6-fluoro-N-(5-fluoro-4-(4-((1-methylpyrrolidin-3-yl)oxy)piperidin-1-yl)pyridin-3-yl)pyrazolo[1,5-a]pyrimidine-3-carboxamide] was tested, and the Ki was 0.01 to 1 µM.
In the case of `CN(C)C1CCN(c2ccncc2NC(=O)c2c(N)nn3cc(Cl)cnc23)CC1` [I-N-37, 2-amino-6-chloro-N-(4-(4-(dimethylamino)piperidin-1-yl)pyridin-3-yl)pyrazolo[1,5-a]pyrimidine-3-carboxamide], the Ki is reported as 1 to 5 µM.
Molecule `CN1CCC(Oc2c(Cl)cncc2NC(=O)c2c(N)nn3cc(Cl)cnc23)CC1` [I-O-46, 2-amino-6-chloro-N-(5-chloro-4-((1-methylpiperidin-4-yl)oxy)pyridin-3-yl)pyrazolo[1,5-a]pyrimidine-3-carboxamide] has a Ki of 1 to 5 µM.

Same assay, conditions: Ki(app), 5 nM full-length ATR, 10 μM ATP, 25° C.
For `CN1CCN(c2c(NC(=O)c3c(N)nn4cc(F)cnc34)cncc2C2CC2)CC1` [I-N-5, 2-amino-N-(5-cyclopropyl-4-(4-methylpiperazin-1-yl)pyridin-3-yl)-6-fluoropyrazolo[1,5-a]pyrimidine-3-carboxamide], the Ki was 0.01 to 1 µM.
`CN1CCN(C2CCN(c3ccncc3NC(=O)c3c(N)nn4cc(Cl)cnc34)CC2)CC1` [I-N-97, 2-amino-6-chloro-N-(4-(4-(4-methylpiperazin-1-yl)piperidin-1-yl)pyridin-3-yl)pyrazolo[1,5-a]pyrimidine-3-carboxamide] was tested, and the Ki was 0.01 to 1 µM.
`Cc1cncc(NC(=O)c2c(N)nn3cc(F)cnc23)c1N1CCC(C(=O)N2CCN(C)CC2)CC1` [I-G-55, 2-amino-6-fluoro-N-(5-methyl-4-(4-(4-methylpiperazine-1-carbonyl)piperidin-1-yl)pyridin-3-yl)pyrazolo[1,5-a]pyrimidine-3-carboxamide] showed a Ki of 0.01 to 1 µM.
For `N#CCc1cnc2c(C(=O)Nc3cnccc3OC3CCC3)c(N)nn2c1` [I-O-36, 2-amino-6-(cyanomethyl)-N-(4-cyclobutoxypyridin-3-yl)pyrazolo[1,5-a]pyrimidine-3-carboxamide], the Ki was < 0.01 µM.
In the case of `Cc1nncn1-c1ccncc1NC(=O)c1c(N)nn2cc(F)cnc12` [I-N-263, 2-amino-6-fluoro-N-(4-(3-methyl-4H-1,2,4-triazol-4-yl)pyridin-3-yl)pyrazolo[1,5-a]pyrimidine-3-carboxamide], the Ki is reported as 0.01 to 1 µM.
`CN1CCN(C(=O)c2ccc(-c3ccncc3NC(=O)c3c(N)nn4cc(F)cnc34)cn2)CC1` [I-C-19, 2-amino-6-fluoro-N-(6-(4-methylpiperazine-1-carbonyl)-[3,4′-bipyridin]-3′-yl)pyrazolo[1,5-a]pyrimidine-3-carboxamide] was tested, and the Ki was 0.01 to 1 µM.
`Nc1nn2cc(F)cnc2c1C(=O)Nc1cncc(Cl)c1N1CCC(C(=O)N2CCN3CCC2CC3)CC1` [I-G-66, N-(4-(4-(1,4-diazabicyclo[3.2.2]nonane-4-carbonyl)piperidin-1-yl)-5-chloropyridin-3-yl)-2-amino-6-fluoropyrazolo[1,5-a]pyrimidine-3-carboxamide] gave a Ki of 0.01 to 1 µM.
`Nc1nn2cc(F)cnc2c1C(=O)Nc1cncc(Cl)c1N1CCN2CCN(C3COC3)CC2C1` (stereo not drawn) [I-N-38, 2-amino-N-(5-chloro-4-(8-(oxetan-3-yl)hexahydro-1H-pyrazino[1,2-a]pyrazin-2(6H)-yl)pyridin-3-yl)-6-fluoropyrazolo[1,5-a]pyrimidine-3-carboxamide] was tested, and the Ki was 0.01 to 1 µM.
In the case of `COC(=O)[C@H]1CC[C@H](Oc2ccncc2NC(=O)c2c(N)nn3cc(F)cnc23)CC1` [I-O-13, (1r,4)-methyl 4-((3-(2-amino-6-fluoropyrazolo[1,5-a]pyrimidine-3-carboxamido)pyridin-4-yl)oxy)cyclohexanecarboxylate], the Ki is reported as 0.01 to 1 µM.
In the case of `COCCS(=O)(=O)C1CCN(c2ccncc2NC(=O)c2c(N)nn3cc(F)cnc23)CC1` [I-N-208, 2-amino-6-fluoro-N-(4-(4-((2-methoxyethyl)sulfonyl)piperidin-1-yl)pyridin-3-yl)pyrazolo[1,5-a]pyrimidine-3-carboxamide], the Ki is reported as 0.01 to 1 µM.
`CN1CC(NC(=O)C2CCN(c3c(F)cncc3NC(=O)c3c(N)nn4cc(F)cnc34)CC2)C1` [I-G-23, 2-amino-6-fluoro-N-(5-fluoro-4-(4-((1-methylazetidin-3-yl)carbamoyl)piperidin-1-yl)pyridin-3-yl)pyrazolo[1,5-a]pyrimidine-3-carboxamide] showed a Ki of 0.01 to 1 µM.
Work on `CN1C[C@@H]2CCN(c3ccncc3NC(=O)c3c(N)nn4cc(F)cnc34)C[C@@H]2C1=O` [I-N-224, 2-amino-6-fluoro-N-(4-((3aR,7aR)-2-methyl-3-oxohexahydro-1H-pyrrolo[3,4-c]pyridin-5(6H)-yl)pyridin-3-yl)pyrazolo[1,5-a]pyrimidine-3-carboxamide] yielded a Ki of 0.01 to 1 µM.
With `Nc1nn2cc(F)cnc2c1C(=O)Nc1cnccc1N1CCN(S(=O)(=O)C2CCOC2)CC1` (stereo not drawn) [I-N-179, 2-amino-6-fluoro-N-(4-(4-((tetrahydrofuran-3-yl)sulfonyl)piperazin-1-yl)pyridin-3-yl)pyrazolo[1,5-a]pyrimidine-3-carboxamide] the Ki was 0.01 to 1 µM.
Work on `CN1CCN(c2ccncc2NC(=O)c2c(N)nn3cc(F)cnc23)CC1` [I-N-3, 2-amino-6-fluoro-N-(4-(4-methylpiperazin-1-yl)pyridin-3-yl)pyrazolo[1,5-a]pyrimidine-3-carboxamide] yielded a Ki of 0.01 to 1 µM.
`Cn1c(-c2ccncc2NC(=O)c2c(N)nn3cc(F)cnc23)cccc1=O` [I-C-58, 2-amino-6-fluoro-N-(1-methyl-6-oxo-1,6-dihydro-[2,4′-bipyridin]-3′-yl)pyrazolo[1,5-a]pyrimidine-3-carboxamide] gave a Ki of 0.01 to 1 µM.
With `CCN1CCN(c2ccncc2NC(=O)c2c(N)nn3cc(Cl)cnc23)CC1` [I-N-51, 2-amino-6-chloro-N-(4-(4-ethylpiperazin-1-yl)pyridin-3-yl)pyrazolo[1,5-a]pyrimidine-3-carboxamide] the Ki was 0.01 to 1 µM.
`Nc1nn2cc(F)cnc2c1C(=O)Nc1cnccc1-c1ccc(C(=O)N2CCNCC2)cc1` [I-C-44, 2-amino-6-fluoro-N-(4-(4-(piperazine-1-carbonyl)phenyl)pyridin-3-yl)pyrazolo[1,5-a]pyrimidine-3-carboxamide] gave a Ki of 0.01 to 1 µM.
Molecule `Nc1nn2cc(F)cnc2c1C(=O)Nc1cnccc1OC1CCS(=O)(=O)CC1` [I-O-45, 2-amino-N-(4-((1,1-dioxidotetrahydro-2H-thiopyran-4-yl)oxy)pyridin-3-yl)-6-fluoropyrazolo[1,5-a]pyrimidine-3-carboxamide] has a Ki of 0.01 to 1 µM.
Work on `Nc1nn2cc(F)cnc2c1C(=O)Nc1cnccc1OC1COC1` [I-O-92, 2-amino-6-fluoro-N-(4-(oxetan-3-yloxy)pyridin-3-yl)pyrazolo[1,5-a]pyrimidine-3-carboxamide] yielded a Ki of 0.01 to 1 µM.
Work on `Nc1nn2cc(F)cnc2c1C(=O)Nc1cnccc1N1CCC(S(=O)(=O)N2CCC2)CC1` [I-N-271, 2-amino-N-(4-(4-(azetidin-1-ylsulfonyl)piperidin-1-yl)pyridin-3-yl)-6-fluoropyrazolo[1,5-a]pyrimidine-3-carboxamide] yielded a Ki of 0.01 to 1 µM.
With `Nc1nn2cc(F)cnc2c1C(=O)Nc1cnccc1N1CCC2(CCNC2)CC1` [I-N-255, N-(4-(2,8-diazaspiro[4.5]decan-8-yl)pyridin-3-yl)-2-amino-6-fluoropyrazolo[1,5-a]pyrimidine-3-carboxamide] the Ki was 0.01 to 1 µM.
Work on `Nc1nn2cc(F)cnc2c1C(=O)Nc1cnccc1N1CCC(CN2CCC(F)(F)C2)CC1` [I-N-197, 2-amino-N-(4-(4-((3,3-difluoropyrrolidin-1-yl)methyl)piperidin-1-yl)pyridin-3-yl)-6-fluoropyrazolo[1,5-a]pyrimidine-3-carboxamide] yielded a Ki of 0.01 to 1 µM.
`Cc1ccncc1NC(=O)c1c(N)nn2cc(F)cnc12` [I-C-4, 2-amino-6-fluoro-N-(4-methylpyridin-3-yl)pyrazolo[1,5-a]pyrimidine-3-carboxamide] was tested, and the Ki was 0.01 to 1 µM.
`CC(C)N1CCCC1C(=O)N1CCN(c2c(F)cncc2NC(=O)c2c(N)nn3cc(F)cnc23)CC1` (stereo not drawn) [I-N-205, 2-amino-6-fluoro-N-(5-fluoro-4-(4-(1-isopropylpyrrolidine-2-carbonyl)piperazin-1-yl)pyridin-3-yl)pyrazolo[1,5-a]pyrimidine-3-carboxamide] was tested, and the Ki was 0.01 to 1 µM.
Molecule `CN1CCC(S(=O)(=O)N2CCN(c3c(F)cncc3NC(=O)c3c(N)nn4cc(F)cnc34)CC2)CC1` [I-N-175, 2-amino-6-fluoro-N-(5-fluoro-4-(4-((1-methylpiperidin-4-yl)sulfonyl)piperazin-1-yl)pyridin-3-yl)pyrazolo[1,5-a]pyrimidine-3-carboxamide] has a Ki of 0.01 to 1 µM.
In the case of `Nc1nn2cc(F)cnc2c1C(=O)Nc1cnccc1C1CCN(C(=O)C2CC2)CC1` [I-C-70, 2-amino-N-(4-(1-(cyclopropanecarbonyl)piperidin-4-yl)pyridin-3-yl)-6-fluoropyrazolo[1,5-a]pyrimidine-3-carboxamide], the Ki is reported as 0.01 to 1 µM.
`Nc1nn2cc(F)cnc2c1C(=O)Nc1cnccc1N1CCC(N2CCCC2=O)CC1` [I-N-230, 2-amino-6-fluoro-N-(4-(4-(2-oxopyrrolidin-1-yl)piperidin-1-yl)pyridin-3-yl)pyrazolo[1,5-a]pyrimidine-3-carboxamide] gave a Ki of 0.01 to 1 µM.
`CN1CC2CN(c3c(Cl)cncc3NC(=O)c3c(N)nn4cc(F)cnc34)CC2C1` (stereo not drawn) [I-N-286, 2-amino-N-(5-chloro-4-(5-methylhexahydropyrrolo[3,4-c]pyrrol-2(1H)-yl)pyridin-3-yl)-6-fluoropyrazolo[1,5-a]pyrimidine-3-carboxamide] showed a Ki of 0.01 to 1 µM.
In the case of `CN1CCC(S(=O)(=O)N2CCN(c3ccncc3NC(=O)c3c(N)nn4cc(F)cnc34)CC2)CC1` [I-N-188, 2-amino-6-fluoro-N-(4-(4-((1-methylpiperidin-4-yl)sulfonyl)piperazin-1-yl)pyridin-3-yl)pyrazolo[1,5-a]pyrimidine-3-carboxamide], the Ki is reported as 0.01 to 1 µM.
For `CN(C)CCOc1ccncc1NC(=O)c1c(N)nn2cc(Cl)cnc12` [I-O-48, 2-amino-6-chloro-N-(4-(2-(dimethylamino)ethoxy)pyridin-3-yl)pyrazolo[1,5-a]pyrimidine-3-carboxamide], the Ki was 0.01 to 1 µM.
